Test results reported in patent US5677292A, “Derivatives of estra 1,3,5(10)triene-17-one,3-amino compounds and their use” (Duquesne University of the Holy Ghost, priority 1996, dated 1997).
Entries after “also recorded” stand apart in the source; their conditions may differ.

How the values were obtained:
[1] = tested on: uterine weight of ovariectomized rats; experiment: Ovariectomized rat uterine weight gain assay: estrogenicity; settings: for Estrogenicity: increase in uterine weight of ovariectomized rats compared with control / Uterine weight compared with other groups (control and E1 -NH2): 25 μg/day, i.p., seven days; for Estrogenicity: increase in uterine weight of ovariectomized rats compared with control: n=5; for Uterine weight compared with other groups (control and E1 -NH2): Student-Newman-Keuls test
Protocol: Estrogenicity and antiestrogenicity were assessed using an ovariectomized rat uterine weight gain assay. […] Ovariectomized rats were maintained two weeks prior to treatment to allow their uteri to regress to basal size. Treatments were given by intraperitoneal injection in a 1% gelatin, 0.9% NaCl solution at a volume of 0.5 ml. Steroids were dissolved in ethanol to 1 mg/ml then further diluted into the injection solution to the desired concentration. All treatments were continued for seven days. At the termination of the experiments, animals were sacrificed by cervical dislocation under ether anesthesia. Body weight was taken, then uteri were excised, stripped of fat, and weighed to the nearest 0.1 mg.
(§1) Steroids were administered at 25 μg/day. For determination of antiestrogenicity, three treatment groups were established: vehicle control, estrone, and estrone E1 NH2.
A rat uterine weight gain assay was used to determine if E1 -NH2 had estrogenic or anti-estrogenic activity. […] Data are means ±SEM, n=5 for all groups. Control animals received vehicle only (0.9% NaCl, 1% gelatin, 500 μl,i.p. injection).

[2] = tested on: nitrosomethyl urea-induced tumor cells in castrated rats; settings: cited from earlier work
[3] = target: T1, rat uterine estrogen receptor (Rattus norvegicus, UniProt P06211); experiment: Estrogen receptor binding, displacement of 3H-estradiol in rat uterine cytosol
T1 sequence (P06211 1-600): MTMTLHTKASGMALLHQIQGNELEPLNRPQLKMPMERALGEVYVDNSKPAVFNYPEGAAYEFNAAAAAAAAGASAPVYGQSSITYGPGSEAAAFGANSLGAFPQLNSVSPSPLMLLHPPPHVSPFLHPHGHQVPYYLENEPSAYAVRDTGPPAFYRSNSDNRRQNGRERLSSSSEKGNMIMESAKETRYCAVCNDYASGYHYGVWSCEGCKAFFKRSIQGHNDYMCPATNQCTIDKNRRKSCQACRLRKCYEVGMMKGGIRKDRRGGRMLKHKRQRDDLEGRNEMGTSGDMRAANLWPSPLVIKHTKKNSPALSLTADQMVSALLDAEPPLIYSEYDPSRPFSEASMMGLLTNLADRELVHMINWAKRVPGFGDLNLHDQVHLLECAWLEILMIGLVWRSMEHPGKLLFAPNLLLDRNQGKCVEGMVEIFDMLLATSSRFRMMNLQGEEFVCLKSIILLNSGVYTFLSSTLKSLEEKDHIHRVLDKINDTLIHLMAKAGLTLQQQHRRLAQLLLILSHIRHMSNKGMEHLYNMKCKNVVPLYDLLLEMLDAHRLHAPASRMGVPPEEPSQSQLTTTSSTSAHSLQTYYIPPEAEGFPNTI
Protocol: Specific binding was calculated as total binding minus nonspecific binding.

[4] = tested on: estrone-induced uterine weight gain in ovariectomized rats; experiment: Ovariectomized rat uterine weight gain assay: anti-estrogenicity (block of estrone-induced uterine weight gain); format: in vivo
Protocol: Estrogenicity and antiestrogenicity were assessed using an ovariectomized rat uterine weight gain assay. […] Ovariectomized rats were maintained two weeks prior to treatment to allow their uteri to regress to basal size. Treatments were given by intraperitoneal injection in a 1% gelatin, 0.9% NaCl solution at a volume of 0.5 ml. Steroids were dissolved in ethanol to 1 mg/ml then further diluted into the injection solution to the desired concentration. All treatments were continued for seven days. At the termination of the experiments, animals were sacrificed by cervical dislocation under ether anesthesia. Body weight was taken, then uteri were excised, stripped of fat, and weighed to the nearest 0.1 mg. In vivo, estradiol and estrone can induce uterine weight gain in female ovariectomized rats.
as §1
Antiestrogenicity was assessed as the ability of the compound to block estrone-induced uterine weight gain in ovariectomized rats. […] Control animals received vehicle only (0.9% NaCl, 1% gelatin, 500 μl. i.p. injection).

C[C@]12CC[C@@H]3c4ccc(O)cc4CC[C@H]3[C@@H]1CC[C@@H]2O [estradiol, estradiol-17β]
Estrogenicity: increase in uterine weight of ovariectomized rats compared with control [1]: significantly increased uterine weight above control levels
Uterine weight compared with other groups (control and E1 -NH2) [1]: significantly (p≤0.05) higher than other groups

estrone sulfate
Stimulation of tumor cell growth [2]: stimulate growth of nitrosomethyl urea-induced tumor cells in castrated rats

C[C@]12CC[C@@H]3c4ccc(O)cc4CC[C@H]3[C@@H]1CCC2=O [estrone]
Estrogenicity: increase in uterine weight of ovariectomized rats compared with control [1]: significantly increased uterine weight above control levels
Uterine weight compared with other groups (control and E1 -NH2) [1]: significantly (p≤0.05) higher than other groups

C[C@]12CC[C@@H]3c4ccc(N)cc4CC[C@H]3[C@@H]1CCC2=O [E1 -NH2, estra-1,3,5(10)-triene-17-one, 3-amine]
Estrogenicity: increase in uterine weight of ovariectomized rats compared with control [1]: did not cause a significant increase in uterine weight
Estrogenicity (conclusion) ([1]; FIGS. 4 and 5): neither estrogenic nor anti-estrogenic
Competition for / interaction with estrogen receptor ([3]; rat uterine cytosol, 0.01, 0.1 and 1 μM competitor): did not compete for estrogen receptor at the same level as estrone; also recorded: does not interact to any great extent with an estrogen receptor
inhibition at 1 µM ([3]; read-out: Displacement of specific 3H-estradiol binding): 60%
Anti-estrogenicity: block of estrone-induced uterine growth ([4]; E1 -NH2 100 μg/day with estrone 2 μg/day, i.p., seven days, n=5): did not block estrone-induced uterine growth
Anti-estrogenicity (conclusion) ([4]; FIGS. 4 and 5): neither estrogenic nor anti-estrogenic
